Data on 2 compounds can be found in patent US20230181527A1, “APICAL SODIUM-DEPENDENT TRANSPORTER INHIBITOR COMPOSITIONS” (Mirum Pharmaceuticals, Inc., priority 2021, published 2023).

As a reminder, the solubility is how much of the substance goes into solution per volume. Higher therefore signals a readily soluble substance.

One data set relates to MDR2−/− mice. Nature of the data set: MDR2−/− mouse model of sclerosing cholangitis. In kind it is in vivo. The protocol: Methods: 30-day-old female MDR2−/− mice (FVB background) were treated daily for 14 days by orogastric gavage with either vehicle control (Kolliphor and CMC), 100 mg/kg/day bezafibrate (pan-PPAR agonist), 100 mg/kg/day fenofibrate (PPARα agonist), 10 mg/kg seladelpar (PPARδ agonist), 0.008% SC-435 (non-absorbable IBAT inhibitor) admixed to chow, or a combination of SC-435 and PPAR agonists.

A short description of another data set: physchem. The settings on record: water. The source says: Since pediatric patients are the target patient population for the proposed cholestatic disease, an oral solution formulation was selected due to its flexibility for dose adjustment based on patient's body weight and the preference for this type of formulation in young children.
Data set [1] is described as follows: Solubility of MRX drug substance in water and commercially available vehicles, visual observation. In kind it is physicochemical. Particulars: Water; 0.02 mg/mL. The method, then: For early pediatric clinical studies, the desired maralixibat solution concentration was in the range of 0.02 to 20 mg/mL (concentration based on maralixibat chloride). Initial formulation studies were conducted to determine the solubility and stability of MRX drug substance in three liquid oral dosing vehicles: water, Pedialyte® (an oral rehydration preparation), and Ora-Sweet® SF (a sugar-free, alcohol-free syrup vehicle for oral preparations). Using these three vehicles, samples were produced with the MRX drug substance at three different concentrations (0.02 mg/mL, 2.0 mg/mL, and 4.0 mg/mL concentrations based on maralixibat chloride). A vortex mixer was used to disperse the drug within the liquid vehicle; drug dissolution status was then visually checked and recorded as in Table 4.

A short description of data set [2]: Maralixibat clinical studies in ALGS (LUM001-304, LUM001-303, LUM001-305): pruritus and concomitant antipruritic medication. In kind it is in vivo, human. The source says:
In Study LUM001-304, participants were not allowed to make any changes to their antipruritic therapy up to Week 22. In Studies LUM001-301 and LUM001-302, no changes to the antipruritic comedications were allowed throughout the period of the primary analysis up to Week 13. Therefore, across all studies, participants had to be on stable antipruritic medication doses (except for weight-based dose adjustments) throughout the randomized controlled periods. […] Participants in LUM001-302 received either 140 μg/kg/day or 280 μg/kg/day of maralixibat (as maralixibat chloride). The long-term LUM001-303 dosing was 280 μg/kg QD and 280 μg/kg BID. The long term LUM001-305 dosing was at 280 μg/kg/day. After these stable-dosing periods in the long-term extension studies, changes in antipruritic medications were allowed. Weight-based dose adjustments in antipruritic medications were anticipated over the course of a 5-year study.

The nature of data set [3]: Maralixibat open label study in PFIC (LUM001-501): pruritus and concomitant antipruritic medication. Format: in vivo, human. An excerpt:
In an open label study to evaluate efficacy and long term safety of maralixibat (LUM001) in the treatment of Cholestatic Liver Disease in patients with Progressive Familial Intrahepatic Cholestasis (PFIC) (Study LUM001-501), participants were not allowed to make any changes to their antipruritic therapy during the 13-week treatment period. No new medications used to treat pruritus were to be added during the 13-week treatment period. Therefore, participants had to be on stable antipruritic medication doses (except for weight-based dose adjustments) during the 13-week treatment period. In the long-term exposure period, changes in antipruritic medications were allowed.

Where [4] appears, read: female MDR2−/− mice, daily for 14 days.
The mark [5] stands for this setting: Study LUM001-303, long-term extension, of the 19 participants.
[6] abbreviates: Study LUM001-305, long term extension, of the 34 participants.

Where only a bound is given, the exact number is not on record here.

Turning to `CCCCC1(CCCC)CS(=O)(=O)c2ccc(N(C)C)cc2[C@@H](c2ccc(OCc3ccc(C[N+]45CCN(CC4)CC5)cc3)cc2)[C@H]1O.[Cl-]` [SC-435], in the data set with MDR2−/− mice (female MDR2−/− mice (FVB background), daily for 14 days), the “serum ALP” value is given as “increased”. Besides, in the data set with MDR2−/− mice (setting [4]), the “liver to body weight ratio” value was “attenuated”, the “retention of BA in the liver” value is reported as “significantly reduced”, the “serum BA concentrations” value is “decreased” and the “serum TB concentrations” value is given as “reduced”. Moreover, the “potency in reducing serum total BA and TB levels” value with MDR2−/− mice (mouse model of SC) is on record as “more potent than PPAR agonists”.

For the compound `CCCCC1(CCCC)CS(=O)(=O)c2ccc(N(C)C)cc2[C@@H](c2ccc(OCc3ccc(C[N+]45CCN(CC4)CC5)cc3)cc2)[C@H]1O` [maralixibat chloride], in the data set “physchem”, the solubility was over 100 mg/mL. Further, in data set [1], the “Solubility Observations” value is listed as “Dissolved Instantly”. Besides, in data set [2] (ALGS studies, long-term follow-up), the pruritus scores entry is given as “consistently improved”. In data set [2] (setting [5]), the “participants who experienced a decrease in concomitant antipruritic medication” value (shortened to “participants who experienced a decrease”) stood at 2 participants, the “participants who experienced an increase in concomitant antipruritic medication” value is listed as “Five” and the “participants with no or minimal change in concomitant antipruritic medication” value is on record as 12 participants. For the same compound, the “pruritus reduction and proportion of participants reducing concomitant antipruritic medication” value in data set [2] (Study LUM001-304, 400 μg/kg dose, compared with supporting ALGS studies at lower doses) was “greatest pruritus reduction and the largest proportion of participants reducing concomitant antipruritic medication”. The “participants who experienced a decrease” value in data set [2] (Study LUM001-304, after Week 22, long-term extension, of the 29 participants) is 10 participants. Moreover, in data set [2] (setting [6]), the “participants who experienced a decrease” value came out at 10 participants, the “participants who experienced an increase in concomitant antipruritic medication” value is “Seven” and the “participants with no or minimal change in concomitant antipruritic medication” value worked out at 17 participants. In data set [3] (5 exemplary PFIC patients, FIGS. 3A-3E), the “pruritus control after discontinuing one or more antipruritic medications” value was “still maintain control of pruritus”. Further, in data set [3] (Study LUM001-501, N=33), the “participants with a decrease in dose or discontinuation of antipruritic medications” value was found to be 13 participants and the “participants with an increase in dose of antipruritic medication” value worked out at 5 participants. Also, the “pruritus, ItchRO(Obs) scores” value in data set [3] (Study LUM001-501, sustained period of follow-up) is on record as “general improvements in pruritus”.
